# The source made the active and inactive calls. The rule behind the calls is not given here.
# Columns and labels:
# [1] = (§1) AUC (0 to infinity) in 129/SvEvBrd X C57BL/6 F1 mouse at 10 mg/kg, po by LC/MS/MS analysis; type: ADME, organism-based, Plasma; parameters: time infinity, dose 10 mg/kg, route oral; conditions: 129/SvEvBrd X C57BL/6 F1, mouse, plasma
# Mus musculus [2] = assay: Immunomodulatory activity in 129/SvEvBrd X C57BL/6 F1 mouse assessed as decrease in peripheral blood lymphocyte count at 30 mg/kg, po measured after 18 hrs by complete blood count analysis relative to control; type: ADME, organism-based; parameters: dose 30 mg/kg, route oral; scale not given: the % may be the effect or the level left; conditions: in vivo
# [3] = Half life in 129/SvEvBrd X C57BL/6 F1 mouse at 10 mg/kg, po by LC/MS/MS analysis; type: ADME, organism-based; parameters: dose 10 mg/kg, route oral; conditions: in vivo
# Mus musculus [4] = assay: Effect on serum anti-CII antibody levels in type 2 collagen-induced arthritis in mouse at 30 mg/kg, po administered qd on day 20 after collagen challenge by ELISA; type: functional, organism-based; parameters: dose 30 mg/kg
# [5] = Volume of distribution at steady state in 129/SvEvBrd X C57BL/6 F1 mouse at 1 mg/kg, iv by LC/MS/MS analysis; type: ADME, organism-based; parameters: dose 1 mg/kg, route intravenous; conditions: in vivo, read-out: Vdss
# Mus musculus [6] = assay: as §1; type: ADME, organism-based, Plasma; parameters: time infinity, dose 10 mg/kg, route oral; conditions: mouse, in vivo
# Mus musculus [7] = assay: Antiarthritic activity in […] collagen-induced arthritis in mouse assessed as decrease in joint swelling at 5 mg/kg, po administered qd on day 20 after collagen challenge by ELISA; type: functional, organism-based; parameters: dose 5 mg/kg
# Mus musculus [8] = assay: Antiarthritic activity in […] collagen-induced arthritis in mouse assessed as decrease in clinical scores at 5 mg/kg, po administered qd on day 20 after collagen challenge by ELISA; type: functional, organism-based; parameters: dose 5 mg/kg
# [9] = Tmax in 129/SvEvBrd X C57BL/6 F1 mouse at 10 mg/kg, po by LC/MS/MS analysis; type: ADME, organism-based; parameters: dose 10 mg/kg, route oral; conditions: in vivo
# [10] = Cmax in 129/SvEvBrd X C57BL/6 F1 mouse at 10 mg/kg, po by LC/MS/MS analysis; type: ADME, organism-based; parameters: dose 10 mg/kg, route oral; conditions: in vivo
# Mus musculus [11] = assay: Bioavailability in 129/SvEvBrd X C57BL/6 F1 mouse determined from 1 mg/kg, iv and 10 mg/kg, po by LC/MS/MS analysis; type: ADME, organism-based; conditions: mouse, in vivo
# Mus musculus [12] = assay: Antiarthritic activity in […] collagen-induced arthritis in mouse assessed as decrease in clinical scores at 30 mg/kg, po administered qd on day 20 after collagen challenge by ELISA; type: functional, organism-based; parameters: dose 30 mg/kg
# Mus musculus [13] = assay: Antiarthritic activity in […] collagen-induced arthritis in mouse assessed as decrease in joint swelling at 30 mg/kg, po administered qd on day 20 after collagen challenge by ELISA; type: functional, organism-based; parameters: dose 30 mg/kg
# Mus musculus [14] = assay: Antiarthritic activity in […] collagen-induced arthritic mouse assessed as increase in CD4-positive cells in thymus at 100 mg/kg, po qd administered one day before collagen challenge; type: functional, organism-based; parameters: dose 100 mg/kg
# Rattus norvegicus [15] = assay: Immunomodulatory activity in Sprague-Dawley rat jejunum assessed as reduction in peripheral blood lymphocyte level at 30 mg/kg, po administered daily for 3 days measured after 18 hrs by CBC analysis; type: functional, organism-based; parameters: dose 30 mg/kg
# Rattus norvegicus [16] = assay: Increase in S1P level Sprague-Dawley rat heart at 30 mg/kg, po administered daily for 3 days measured after 18 hrs […]; type: functional, organism-based; parameters: dose 30 mg/kg
# Rattus norvegicus [17] = assay: Immunomodulatory activity in Sprague-Dawley rat heart assessed as reduction in peripheral blood lymphocyte level at 30 mg/kg, po administered daily for 3 days measured after 18 hrs by CBC analysis; type: functional, organism-based; parameters: dose 30 mg/kg
# Rattus norvegicus [18] = assay: Increase in S1P level in Sprague-Dawley rat eye at 30 mg/kg, po administered daily for 3 days measured after 18 hrs […]; type: functional, organism-based; parameters: dose 30 mg/kg
# Rattus norvegicus [19] = assay: Immunomodulatory activity in Sprague-Dawley rat lung assessed as reduction in peripheral blood lymphocyte level at 30 mg/kg, po administered daily for 3 days measured after 18 hrs by CBC analysis; type: functional, organism-based; parameters: dose 30 mg/kg
# Mus musculus [20] = assay: Antiarthritic activity in […] collagen-induced arthritic mouse assessed as decrease in exudate formation at 100 mg/kg, po administered qd one started one day before collagen challenge; type: functional, organism-based; parameters: dose 100 mg/kg
# Mus musculus [21] = assay: Antiarthritic activity in […] collagen-induced arthritic mouse assessed as decrease in synovial hyperplasia at 100 mg/kg, po administered qd one started one day before collagen challenge; type: functional, organism-based; parameters: dose 100 mg/kg
# Rattus norvegicus [22] = assay: Immunomodulatory activity in Sprague-Dawley rat lymph node assessed as reduction in peripheral blood lymphocyte level at 30 mg/kg, po administered daily for 3 days measured after 18 hrs by CBC analysis; type: functional, organism-based; parameters: dose 30 mg/kg
# Mus musculus [23] = assay: Antiarthritic activity in […] collagen-induced arthritic mouse assessed as decrease in joint swelling at 100 mg/kg, po administered qd one started one day before collagen challenge; type: functional, organism-based; parameters: dose 100 mg/kg
# Rattus norvegicus [24] = assay: Immunomodulatory activity in Sprague-Dawley rat thymus assessed as reduction in peripheral blood lymphocyte level at 30 mg/kg, po administered daily for 3 days measured after 18 hrs by CBC analysis; type: functional, organism-based; parameters: dose 30 mg/kg
# Mus musculus [25] = assay: Antiarthritic activity in […] collagen-induced arthritic mouse assessed as delay in onset of collagen-induced arthritis at 100 mg/kg, po administered qd one started one day before collagen challenge; type: functional, organism-based; parameters: dose 100 mg/kg
# Mus musculus [26] = assay: Antiarthritic activity in […] collagen-induced arthritic mouse assessed as decrease in inflammation at 100 mg/kg, po administered qd one started one day before collagen challenge; type: functional, organism-based; parameters: dose 100 mg/kg
# Rattus norvegicus [27] = assay: Immunomodulatory activity in Sprague-Dawley rat kidney assessed as reduction in peripheral blood lymphocyte level at 30 mg/kg, po administered daily for 3 days measured after 18 hrs by CBC analysis; type: functional, organism-based; parameters: dose 30 mg/kg
# Rattus norvegicus [28] = assay: Immunomodulatory activity in Sprague-Dawley rat spleen assessed as reduction in peripheral blood lymphocyte level at 30 mg/kg, po administered daily for 3 days measured after 18 hrs by CBC analysis; type: functional, organism-based; parameters: dose 30 mg/kg
# Mus musculus [29] = assay: Antiarthritic activity in […] collagen-induced arthritic mouse assessed as increase in CD8-positive cells in thymus at 100 mg/kg, po qd administered one day before collagen challenge; type: functional, organism-based; parameters: dose 100 mg/kg
# Mus musculus [30] = assay: Antiarthritic activity in […] collagen-induced arthritic mouse assessed as decrease in erosion at 100 mg/kg, po administered qd one started one day before collagen challenge; type: functional, organism-based; parameters: dose 100 mg/kg
# Mus musculus [31] = assay: Antiarthritic activity in […] collagen-induced arthritic mouse assessed as decrease in arthritic score at 100 mg/kg, po administered qd one started one day before collagen challenge; type: functional, organism-based; parameters: dose 100 mg/kg
# Rattus norvegicus [32] = assay: Immunomodulatory activity in Sprague-Dawley rat liver assessed as reduction in peripheral blood lymphocyte level at 30 mg/kg, po administered daily for 3 days measured after 18 hrs by CBC analysis; type: functional, organism-based; parameters: dose 30 mg/kg
# Mus musculus [33] = assay: Immunomodulatory activity in mouse assessed as induction of lymphopenia at 5 to 10 mg/kg, po administered as single dose measured after 18 hrs; type: functional, organism-based
# Rattus norvegicus [34] = assay: Immunomodulatory activity in Sprague-Dawley rat eye assessed as reduction in peripheral blood lymphocyte level at 30 mg/kg, po administered daily for 3 days measured after 18 hrs by CBC analysis; type: functional, organism-based; parameters: dose 30 mg/kg
structure (smiles),measurement,setting,value
Cl.OCc1cc(-c2nc([C@@H](O)[C@H](O)[C@H](O)CO)c[nH]2)no1,AUC(0-inf),[1],6.1 µM·h
same,Activity,Mus musculus [2],-7%
Cl.OC[C@@H](O)[C@@H](O)[C@H](O)c1c[nH]c(C2=NOCC2)n1,AUC(0-inf),[1],8.3 µM·h
same,Activity,Mus musculus [2],-12%
CCOc1cc(-c2nc([C@@H](O)[C@H](O)[C@H](O)CO)c[nH]2)no1.Cl,AUC(0-inf),[1],9.1 µM·h
same,Activity,Mus musculus [2],-26%
CN(C)Cc1cc(-c2nc([C@@H](O)[C@H](O)[C@H](O)CO)c[nH]2)no1.Cl,AUC(0-inf),[1],5.9 µM·h
same,Activity,Mus musculus [2],-10%
CCc1conc1-c1nc([C@@H](O)[C@H](O)[C@H](O)CO)c[nH]1.Cl,AUC(0-inf),[1],26.9 µM·h
same,Activity,Mus musculus [2],-55%
Cl.OC[C@@H](O)[C@@H](O)[C@H](O)c1c[nH]c(-c2cc(C3CC3)on2)n1,AUC(0-inf),[1],9.6 µM·h
same,Activity,Mus musculus [2],-19%
Cl.OC[C@@H](O)[C@@H](O)[C@H](O)c1c[nH]c(-c2cc(C(F)(F)F)on2)n1,AUC(0-inf),[1],7.8 µM·h
same,Activity,Mus musculus [2],2%
Cl.OC[C@@H](O)[C@@H](O)[C@H](O)c1c[nH]c(-c2ccon2)n1,half-life,[3],2.9 h
same,Activity,Mus musculus [4],inactive
same,Vd,[5],0.54 L/kg
same,AUC,Mus musculus [6],21 µM·h
same,Activity,Mus musculus [7],Active
same,Activity,Mus musculus [2],-70%
same,Activity,Mus musculus [8],Active
same,Tmax,[9],2.1 h
same,Cmax,[10],6.2 µM
same,F,Mus musculus [11],2.4%
same,Activity,Mus musculus [12],Active
same,Activity,Mus musculus [13],Active
CC(=O)c1c(-c2nc([C@@H](O)[C@H](O)[C@H](O)CO)c[nH]2)noc1C.Cl,AUC(0-inf),[1],11.7 µM·h
same,Activity,Mus musculus [2],-6%
Cl.OC[C@@H](O)[C@@H](O)[C@H](O)c1c[nH]c(-c2cc(-c3ccccc3)on2)n1,AUC(0-inf),[1],10.3 µM·h
same,Activity,Mus musculus [2],-2%
CC(C)c1cc(-c2nc([C@@H](O)[C@H](O)[C@H](O)CO)c[nH]2)no1.Cl,AUC(0-inf),[1],12.8 µM·h
same,Activity,Mus musculus [2],-30%
Cc1onc(-c2nc([C@@H](O)[C@H](O)[C@H](O)CO)c[nH]2)c1[N+](=O)[O-].Cl,AUC(0-inf),[1],8.2 µM·h
same,Activity,Mus musculus [2],-27%
CC(=O)c1nc([C@@H](O)[C@H](O)[C@H](O)CO)c[nH]1.Cl,AUC(0-inf),[1],15 µM·h
same,Activity,Mus musculus [2],-25%
C/C(=N\O)c1ncc([C@@H](O)[C@H](O)[C@H](O)CO)[nH]1,Activity,Mus musculus [14],Active
same,Activity,Rattus norvegicus [15],Active
same,Activity,Rattus norvegicus [16],inactive
same,Activity,Rattus norvegicus [17],Active
same,Activity,Mus musculus [4],inactive
same,Activity,Rattus norvegicus [18],inactive
same,Activity,Rattus norvegicus [19],Active
same,Activity,Mus musculus [20],Active
same,Activity,Mus musculus [21],Active
same,Activity,Rattus norvegicus [22],Active
same,Activity,Mus musculus [23],Active
same,Activity,Rattus norvegicus [24],Active
same,Activity,Mus musculus [7],Active
same,Activity,Mus musculus [25],Active
same,Activity,Mus musculus [26],Active
same,Activity,Mus musculus [8],Active
same,Activity,Rattus norvegicus [27],Active
same,Activity,Rattus norvegicus [28],Active
same,Activity,Mus musculus [29],Active
same,Activity,Mus musculus [30],Active
same,Activity,Mus musculus [31],Active
same,Activity,Mus musculus [12],Active
same,Activity,Rattus norvegicus [32],Active
same,Activity,Mus musculus [13],Active
same,Activity,Mus musculus [33],inactive
same,Activity,Rattus norvegicus [34],Active
Cc1cc(-c2nc([C@@H](O)[C@H](O)[C@H](O)CO)c[nH]2)on1.Cl,AUC(0-inf),[1],5.3 µM·h
same,Activity,Mus musculus [2],-4%
Cc1cc(-c2nc([C@@H](O)[C@H](O)[C@H](O)CO)c[nH]2)no1.Cl,AUC(0-inf),[1],12.5 µM·h
same,Activity,Mus musculus [2],-39%

# From ChEMBL document CHEMBL1799925, “Inhibition of sphingosine 1-phosphate lyase for the treatment of rheumatoid arthritis: discovery of (E)-1-(4-((1R,2S,3R)-1,2,3,4-tetrahydroxybutyl)-1H-imidazol-2-yl)ethanone oxime (LX2931) and (1R,2S,3R)-1-(2-(isoxazol-3-yl)-1H-imidazol-4-yl)butane-1,2,3,4-tetraol (LX2932)” (J Med Chem, 2010)
